Assays:
Type in all cases: physicochemical
[1] = Determination of solubility (qualitative, mixing ionic liquid with solvent)
Description: Solubility was determined only qualitatively by mixing approximately 0.5 ml of the ionic liquid with the same amount of organic solvent and shaking. All samples were checked a second time after several hours to ensure, that no slow phase separation had occured.

[2] = Determination of viscosity (Brookfield Cone and Plate Viscometer)
Description: Viscosity was measured using an LVDV-II Brookfield Cone and Plate Viscometer (1% accuracy, 0.2 repeatability). The sample cup of the viscometer was fitted with luer and purge fittings, so that a positive current of dry dinitrogen was maintained at all times during the measurements, thus avoiding absorption of atmospheric moisture. The sample cup was jacketed with a circulating water bath that was controlled by a circulator bath Grant LTD 6G (+0.1° C. accuracy).

[3] = Thermal decomposition observed with melting point determination; settings: thermal stability

Which Solubility ([1]; solvent acetonitrile) does the source give for `CCCCCCCCCCCCCC[P+](CCCCCC)(CCCCCC)CCCCCC.O=C1O[B-]2(OC(=O)c3ccccc3O2)Oc2ccccc21` [[R4P] [BSB], [(C6)3P(C14)][BSB]] here?
The Solubility was “Y*”.

And the Solubility ([1]; solvent hexane)?
Its Solubility is “N**”.

And the Viscosity ([2]; 5 ° C.)?
Its Viscosity is 7334 cP.

And the Viscosity ([2]; 10 ° C.)?
The Viscosity was 4241 cP.

And the Viscosity ([2]; 15 ° C.)?
The Viscosity was 2663 cP.

And the Viscosity ([2]; 20 ° C.)?
Its Viscosity is 1730 cP.

What about the Viscosity ([2]; 25 ° C.) of the same compound?
Its Viscosity is 1164 cP.

And the Viscosity ([2]; 30 ° C.)?
Its Viscosity is 801.4 cP.

What about the Viscosity ([2]; 35 ° C.) of the same compound?
Its Viscosity is 566.3 cP.

And the Viscosity ([2]; 40 ° C.)?
The Viscosity was 407.0 cP.

What about the Viscosity ([2]; 45 ° C.) of the same compound?
Its Viscosity is 300.4 cP.

And the Viscosity ([2]; 50 ° C.)?
The Viscosity was 229.6 cP.

And the Viscosity ([2]; 55 ° C.)?
The Viscosity was 171.4 cP.

What about the Viscosity ([2]; 60 ° C.) of the same compound?
The Viscosity was 132.6 cP.

What about the Viscosity ([2]; 65 ° C.) of the same compound?
The Viscosity was 106.3 cP.

What about the Viscosity ([2]; 70 ° C.) of the same compound?
Its Viscosity is 85.1 cP.

What about the Viscosity ([2]; 75 ° C.) of the same compound?
The Viscosity was 68.4 cP.

What about the Viscosity ([2]; 80 ° C.) of the same compound?
The Viscosity was 56.4 cP.

And the Viscosity ([2]; 85 ° C.)?
The Viscosity was 47.2 cP.

What about the Viscosity ([2]; 90 ° C.) of the same compound?
The Viscosity was 39.9 cP.

What about the Viscosity ([2]; 95 ° C.) of the same compound?
The Viscosity was 34.1 cP.

For `CCCCCCCCCCCCCC[P+](CCCCCC)(CCCCCC)CCCCCC.c1ccc2c(c1)O[B-]1(Oc3ccccc3-2)Oc2ccccc2-c2ccccc2O1` [[R4P] [BBPB], [(C6)3P(C14)][BBPB]], which Solubility ([1]; solvent acetonitrile) is on record?
Its Solubility is “Y*”.

What about the Solubility ([1]; solvent iso-propyl alcohol) of the same compound?
Its Solubility is “Y*”.

And the Viscosity ([2]; 5 ° C.)?
The Viscosity was 95020 cP.

And the Viscosity ([2]; 10 ° C.)?
The Viscosity was 59233 cP.

And the Viscosity ([2]; 15 ° C.)?
Its Viscosity is 33737 cP.

And the Viscosity ([2]; 20 ° C.)?
The Viscosity was 20660 cP.

What about the Viscosity ([2]; 25 ° C.) of the same compound?
The Viscosity was 12813 cP.

And the Viscosity ([2]; 30 ° C.)?
The Viscosity was 8245 cP.

And the Viscosity ([2]; 35 ° C.)?
Its Viscosity is 5453 cP.

And the Viscosity ([2]; 40 ° C.)?
Its Viscosity is 3675 cP.

And the Viscosity ([2]; 45 ° C.)?
The Viscosity was 2703 cP.

And the Viscosity ([2]; 50 ° C.)?
Its Viscosity is 1953 cP.

What about the Viscosity ([2]; 55 ° C.) of the same compound?
Its Viscosity is 1393 cP.

What about the Viscosity ([2]; 60 ° C.) of the same compound?
Its Viscosity is 1022 cP.

What about the Viscosity ([2]; 65 ° C.) of the same compound?
The Viscosity was 759.0 cP.

What about the Viscosity ([2]; 70 ° C.) of the same compound?
The Viscosity was 550.7 cP.

What about the Viscosity ([2]; 75 ° C.) of the same compound?
Its Viscosity is 333.9 cP.

And the Viscosity ([2]; 80 ° C.)?
The Viscosity was 209.2 cP.

What about the Viscosity ([2]; 85 ° C.) of the same compound?
The Viscosity was 173.0 cP.

What about the Viscosity ([2]; 90 ° C.) of the same compound?
The Viscosity was 177.8 cP.

What does the source list for `CCCCCCCCCCCCCC[P+](CCCCCC)(CCCCCC)CCCCCC.c1ccc2c(c1)O[B-]1(O2)Oc2ccccc2O1` [[R4P] [BBB], [(C6)3P(C14)][BBB]]?
Solubility ([1]; solvent acetonitrile): Y*; Solubility ([1]; solvent hexane): N**; Solubility ([1]; solvent iso-propyl alcohol): Y*; Viscosity ([2]; 15 ° C.): 6184 cP; Viscosity ([2]; 20 ° C.): 3735 cP; Viscosity ([2]; 25 ° C.): 2439 cP; Viscosity ([2]; 30 ° C.): 1593 cP; Viscosity ([2]; 35 ° C.): 1087 cP; Viscosity ([2]; 40 ° C.): 739.8 cP; Viscosity ([2]; 45 ° C.): 538.1 cP; Viscosity ([2]; 50 ° C.): 386.7 cP; Viscosity ([2]; 55 ° C.): 288.3 cP; Viscosity ([2]; 60 ° C.): 217.2 cP; Viscosity ([2]; 65 ° C.): 168.2 cP; Viscosity ([2]; 70 ° C.): 126.3 cP; Viscosity ([2]; 75 ° C.): 100.2 cP; Viscosity ([2]; 80 ° C.): 81.0 cP; Viscosity ([2]; 85 ° C.): 65.2 cP; Viscosity ([2]; 90 ° C.): 50.2 cP; Viscosity ([2]; 95 ° C.): 40.91 cP; decomposition (temperature) [3]: above 200 °C

Source: US20050000824A1, “Phosphorus-borates with low melting points” (priority 2001, published 2005)
